Experimental data taken from ChEMBL document CHEMBL1125807, “Synthesis and preliminary evaluation of (+)-CBI-indole2: an enhanced functional analog of (+)-CC-1065” (Bioorg Med Chem Lett, 1991).
Values after ≈ are worked out from the molar mass of the structure shown. Values joined by “and” are separate entries in the source; they are usually repeats but may differ in a detail not shown here. Equal entries are not always repeated.

How the values were obtained:
[1] = system: Nucleic Acid; assay: Percent alkylation at the high affinity alkylation site [5'-d(AATB)-3'] within w794 DNA at 4 degrees C, 24 h; range is 5-10 %; format: functional
[2] = Relative stability based on solvolysis studies; format: physicochemical
[3] = system: L1210; assay: Inhibitory concentration required for 50% in vitro cytotoxic activity was determined against L1210 mouse lymphocytic leukemia at 40 pM; format: functional, cell-based
[4] = system: Mus musculus; assay: In vivo antitumor activity of 75 ug/kg.day subcutaneously administered compound against P388 leukemia in mouse; format: functional
[5] = system: Mus musculus; assay: In vivo antitumor activity of 29 ug/kg.day subcutaneously administered compound against Ip implanted L1210 tumor in mouse; format: functional
[6] = system: Mus musculus; assay: In vivo antitumor activity of 39 ug/kg.day subcutaneously administered compound against Ip implanted L1210 tumor in mouse; format: functional
[7] = system: L1210; assay: Relative IC50 for in vitro cytotoxic activity against L1210 mouse lymphocytic leukemia; format: functional
[8] = system: Mus musculus; assay: In vivo antitumor activity of 10 ug/kg.day subcutaneously administered compound against Ip implanted L1210 tumor in mouse; format: functional
[9] = system: Nucleic Acid; assay: Relative fist order rate constant for alkylation at the high affinity site of DNA; format: functional
[10] = species on record: Mus musculus; assay: Relative cytotoxic activity against mouse L1210 leukemia; format: functional
[11] = system: Mus musculus; assay: In vivo antitumor activity of 19 ug/kg.day subcutaneously administered compound against Ip implanted L1210 tumor in mouse; format: functional
[12] = system: Nucleic Acid; assay: Relative intensity of DNA alkylation at the high affinity alkylation site [5'-d(AATB)-3'] within w794 DNA at 4 degrees C, 24 h; format: functional
[13] = Half-life was determined; format: ADME; conditions: human
[14] = system: L1210; assay: Inhibitory concentration required for 50% in vitro cytotoxic activity was determined against L1210 mouse lymphocytic leukemia at 10 pM; format: functional, cell-based
[15] = system: Mus musculus; assay: Survivors at day 18 at 29 ug/kg.day; value is given as 1/6 and no evidence of residual tumor found.; format: functional, organism-based
[16] = system: Mus musculus; assay: Survivors at day 18 at 39 ug/kg.day; value is given as 4/6 and no evidence of residual tumor found.; format: functional, organism-based
[17] = system: Nucleic Acid; assay: Percent alkylation at the high affinity alkylation site [5'-d(AATB)-3'] within w794 DNA at 4 degrees C, 24 h; format: functional
[18] = system: Mus musculus; assay: In vivo antitumor activity of 5 ug/kg.day subcutaneously administered compound against Ip implanted L1210 tumor in mouse; format: functional

Row | Compound | DNA alkylation [1] [%] | Relative stability [2] | IC50 [3] [ng/mL] | T/C [4] | T/C [5] | T/C [6] | Cytotoxic activity [7] | T/C [8] | rel k [9] | Relative cytotoxic activity [10] | T/C [11] | Relative intensity [12] | half-life [13] [h] | IC50 [14] [ng/mL] | Survivors [15] | Survivors [16] | DNA alkylation [17] [%] | T/C [18]
1 | Cc1c[nH]c2c1C13CC1CN(C(=O)c1cc4cc(NC(=O)c5cc6ccccc6[nH]5)ccc4[nH]1)C3=CC2=O (single isomer, unassigned; (+)) | 10 | 0.27 | 0.02 (≈ 0.0399 nM) | 259 | 118 | 129 | 0.25 | 114 and 133 | 0.07 | 0.25 | 113 | 0.1 | 36.7 | – | – | – | – | –
2 | O=C(Nc1ccc2[nH]c(C(=O)N3C[C@H]4C[C@@]45C3=CC(=O)c3ccccc35)cc2c1)c1cc2ccccc2[nH]1 | – | 1 | – | – | >175 | >200 | 1 | 156 | 1 | 1 | 162 | 1 | 133 | 0.005 (≈ 0.01 nM) | No evidence of residual tumor found | No evidence of residual tumor found | 93 | 120
